# Measured values from patent US9844578B2, “Accelerated healing of eye injuries by angiotensin peptides” (UNIVERSITY OF SOUTHERN CALIFORNIA, priority 2013, dated 2017).
# Residues, ends and D or L forms follow the SMILES beside them.
# Test system: full-thickness corneal incision
# Conditions: rabbit, in vivo
# Experimental: Animal Preparation and Procedure:
# Before each procedure, the rabbits were anesthetized with a subcutaneous injection of a mixture of ketamine hydrochloride (50-80 mg/kg) and xylazine hydrochloride (5-9 mg/kg). The animal was prepared for sterile surgery conducted under aseptic conditions. Periorbital area was cleaned using 5% povidone iodine solution and a drop of this solution was instilled into the fornix and a speculum was used to hold the eyelids open. Using corneal blade (Keratome 3.2 mm), a clear corneal full-thickness tunnel was created in the same manner as in human phacoemulsification surgery. To prevent the globe collapse after corneal tunnel creation, a small amount of viscoelastic was injected in the anterior chamber through a paracentesis. Gentamicin 25 mg, and dexamethasone 2 mg were injected subconjunctivally. Post-operatively, analgesia was administered. Animals allocated to the treatment group were treated with 1 drop (approximately 50 μl) of the active drug (0.03% or 0.3% Nle3 A(1-7) in 2% hydroxyethyl cellulose in 0.05 M phosphate buffer, pH 6.5) under investigation instilled into the conjunctival sac daily (using a dropper throughout the follow-up period. On the other hand, animals allocated to the control group will be treated with vehicle (2% hydroxyethyl cellulose in 0.05 M phosphate buffer, pH 6.5) eyedrops daily throughout the follow-up period.
# These ocular follow-up examinations were done while the animal was under anesthesia as described above. Anterior segment imaging includes red free picture and anterior segment fluorescein imaging using Spectralis (Heildelberg Engineering, Germany) where sequential photos are taken after one drop of 10% fluorescein (Akorn Abit Springs, La.) was instilled in the conjunctival sac and a slight pressure was applied to the globe. This is more commonly known as Seidel's test in which fluorescein strip containing 10% fluorescein was applied topically to the affected area and was examined with a cobalt blue filter. At this point, the fluorescein appears green in color. Any changes in color or surface of the fluorescence area indicate the presence of conical leakage. This imaging data were used to assess the degree of corneal wound healing as well as extent of wound leak. Measurement of the intraocular pressure was performed using Tonopen-AVIVA (TPA, Reichert Inc.).
# The injury was also imaged using involved using a Heidelberg Retina Tomograph (HRT) instrument. This is a confocal scanning laser ophthalmoscope which was converted into a confocal corneal microscope using an additional microscope lens which attached to the standard lens. This additional lens enabled the HRT to image cells and cell layers within the cornea to allow an in-life phase assessment of the healing and structure of the cornea to allow detailed views of the conical structure and pathology.
structure (smiles),measurement,value
"CCCC[C@H](NC(=O)[C@H](CCCNC(=N)N)NC(=O)[C@@H](N)CC(=O)O)C(=O)N[C@@H](Cc1ccc(O)cc1)C(=O)N[C@H](C(=O)N[C@@H](Cc1c[nH]cn1)C(=O)N1CCC[C@H]1C(=O)O)[C@@H](C)CC [Nle3-A(1-7), Asp-Arg-Nle-Tyr-Ile-His-Pro] (HELM PEPTIDE1{D.R.[Nle].Y.I.H.P}$$$$V2.0)",Complications,None
same,Fundus Exam & Fluorescein angiography,Normal
same,IOP,Normal
same,change in intraocular pressure,no change
same,fundus examination and fluorescein angiography,normal
